Measurements from PubChem BioAssay (NCI).
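Following 48 hours of exposure in 96-well plates, responses at five concentrations were used to interpolate endpoints linearly. GI50 is the concentration that inhibits growth by half. TGI is the concentration that stops growth completely.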

How the values were obtained:
Experiment in all cases: growth of human tumour cells (NCI), 48 h
[1] = test system: CAKI-1 renal
[2] = test system: HL-60(TB) leukemia
[3] = test system: IGROV1 ovarian
[4] = test system: A498 renal
[5] = test system: EKVX NSCLC
[6] = test system: UACC-257 melanoma
[7] = test system: OVCAR-8 ovarian
[8] = test system: CCRF-CEM leukemia
[9] = test system: A549 NSCLC
[10] = test system: M14 melanoma

SMILES	TGI [1] [µM]	TGI [2] [µM]	TGI [3] [µM]	TGI [4] [µM]	TGI [5] [µM]	TGI [6] [µM]	TGI [7] [µM]	TGI [8] [µM]	TGI [9] [µM]	TGI [10] [µM]	GI50 [1] [µM]	GI50 [2] [µM]	GI50 [3] [µM]	GI50 [4] [µM]	GI50 [5] [µM]	GI50 [6] [µM]	GI50 [7] [µM]	GI50 [8] [µM]	GI50 [9] [µM]	GI50 [10] [µM]
C/C(=N\NS(=O)(=O)c1ccccc1)c1ccc(Cl)c(Cl)c1	> 100	> 100	> 100	> 100	> 100	> 100	> 100	> 100	> 100	> 100										
CN(C)CCCNC(CC#N)CCC#N (stereo unspecified)	> 10	> 10	> 10	> 10	> 10	> 10	> 10	> 10	> 10	> 10										
CN(C)C(=O)OC(Cn1cncn1)c1ccc(Cl)cc1Cl (stereo unspecified)	> 100	> 100	> 100	> 100	> 100	> 100	> 100		> 100	> 100										
Cn1cccc1-c1cc(-c2cccs2)nc(N)c1C#N	> 100	> 100	> 100	> 100	> 100	> 100	> 100	> 100	> 100		> 100	> 100	> 100	> 100	> 100	> 100	> 100	> 100	> 100	
Cc1csc(=S)n1OC(=O)NC1CCCCC1	> 100	56.5	> 100	> 100	> 100	> 100	> 100	> 28.2	> 100	> 100										
NCCn1c(=O)[nH]c(=O)[nH]c1=S	> 100	> 100	> 100	> 100	> 100	> 100	> 100	> 100	> 100	> 100	> 100	> 100	> 100	> 100	> 100	> 100	> 100	> 100	> 100	> 100
Cc1cc(N(CCC#N)CCC#N)ccc1N=Nc1cccc(C(=O)O)c1	> 100	> 100	> 100	> 100	> 100	> 100	> 100	> 100	> 100	> 100										
COc1ccc(C2=Nc3ccccc3NC(=O)C2)cc1	> 100	42.1	> 100	> 100	> 100	> 100	> 100	> 100	> 100	> 100										
NC1C[C@H](n2cc(/C=C/Br)c(=O)[nH]c2=O)C[C@@H]1CO (stereo partly specified)		> 100		> 100	> 100	> 100	> 100	> 100		> 100										
O=c1cc(-c2ccccc2)[nH]c2ccccc12	> 100	> 100	> 33.7	33	> 100	> 100	> 100	> 100	> 100	> 100	0.825	0.52	2.35	0.428	8.95	> 79.3	4.18	0.738	1.88	0.941
Cc1ccc(N=Cc2ccc3c(c2)OCO3)cc1C	> 100	> 100	> 100	> 100	> 100		> 100	> 100	> 100	> 100										
COc1cc(OC(C)=O)cc2c(OC(C)=O)ccc(OC(C)=O)c12	> 100	> 100	> 100	> 100	> 100	> 100	> 100	> 100	> 100	> 100										
O=C(N/C(=C\c1ccc2c(c1)OCO2)c1nc2ccccc2[nH]1)c1ccccc1	> 100	37.4	77.3	> 93.8	> 100	35.8	> 100	> 89.2	> 100	> 90.9										
COC(=O)C(=O)C1(CCC(C)=O)c2ccccc2-c2c(C)ccc(C)c21 (stereo unspecified)	> 100	32.1	> 100	> 100	> 100	91.8	> 100	> 100	> 100	> 100										
COc1ccc2c(c1)cn1c3ccc(O)cc3nc(N)c21	4.39	31.3	6.59	17.4	18.5	1	4.92	> 50.9	4.22	4.98	0.246	0.765	0.176	0.498	1.51	0.0793	0.375	0.163	0.174	0.0798
COc1cc(C(=O)C/C(CCCC(=O)Nc2ccccc2[N+](=O)[O-])=N/NC(=O)c2cc3ccccc3cc2O)ccc1O	> 100	51.3	> 100	> 100	> 84.7	82	> 100	> 31.6	> 100	50.2										
COc1ccc(/C=C2\CCCC3=C2N=C2SC(C)=NN2C3c2ccc(OC)c(OC)c2)cc1OC (stereo unspecified)	> 100	36	93.8	86.3		> 100	> 100	> 100	> 100	> 100	4.82	3.97	18.4	2		9.17	6.31	2.91	31.8	5.73
CCCC(=O)OC1C(C(O)CO)OC2OC(C)(C)OC21 (stereo unspecified)	> 100	< 3.16	> 100	> 100	> 100	> 100	> 100	< 3.16	> 100	> 100										
